Measured values reported in ChEMBL document CHEMBL4261494, “Design, synthesis and biological evaluation of novel Schiff base-bridged tetrahydroprotoberberine triazoles as a new type of potential antimicrobial agents” (Medchemcomm, 2017).
Values after ≈ are worked out from the molar mass of the structure shown. Active and inactive are the calls of the source. No cut-off for these calls is given here.

Tests used:
Staphylococcus aureus [1] = assay type: functional; details: ATCC 25923, 24 h
Staphylococcus aureus [2] = assay type: functional; details: N315, 24 h
Bacillus spizizenii = assay type: functional; details: ATCC 6633, 24 h
Micrococcus luteus = assay type: functional; details: ATCC 4698, 24 h
Escherichia coli [3] = assay type: functional; details: JM109, 24 h
Escherichia coli [4] = assay type: functional; details: DH52, 24 h
Shigella dysenteriae = assay type: functional; details: 24 h
Pseudomonas aeruginosa = assay type: functional; details: ATCC 27853, 24 h
Proteus vulgaris = assay type: functional; details: ATCC 13315, 24 h
Salmonella typhi = assay: microbe, parasite or virus in culture; details: Salmonella enterica, 24 h
Staphylococcus aureus [5] = assay: Potency index, ratio of chloromycin MIC to test compound MIC for methicillin-resistant Staphylococcus aureus N315; assay type: functional
Staphylococcus aureus [6] = assay: Potency index, ratio of norfloxacin MIC to test compound MIC for methicillin-resistant Staphylococcus aureus N315; assay type: functional
Candida albicans = assay type: functional; details: for MIC: ATCC 10231, 24 h
Kregervanrija fluxuum = assay type: functional
Cyberlindnera jadinii = assay type: functional; details: for MIC: Williopsis jadinii, ATCC 9950, 24 h
Aspergillus flavus = assay type: functional
Saccharomyces cerevisiae = assay type: functional; details: 24 h
[7] = Aqueous solubility of the compound in pH 7.4 phosphate buffer at 1 mg after 3 hrs by UV absorption analysis; assay type: physicochemical
Staphylococcus aureus [8] = assay: Bactericidal activity against methicillin-resistant Staphylococcus aureus N315 assessed as log reduction in viable bacterial count at 4 times MIC incubated up to 1 hr followed by replating on yeast-dextrose agar plates and measured after 24 hrs by time kill assay; assay type: functional
Staphylococcus aureus [9] = assay: Antibacterial activity against methicillin-resistant Staphylococcus aureus N315 after 14 passages; assay type: functional, organism-based
Calf thymus DNA [10] = assay: Binding affinity to calf thymus DNA assessed as increase in hypochromic effect up to 2 x 10^-5 mol/L by UV absorption spectral analysis; assay type: nucleic-acid assay; details: Bos taurus
Calf thymus DNA [11] = assay: Binding affinity to calf thymus DNA by UV absorption spectral analysis; assay type: nucleic-acid assay; details: Bos taurus
Calf thymus DNA [12] = assay: Inhibition of neutral red binding to calf thymus DNA up to 2 x 10^-5 mol/L by UV absorption spectral analysis; assay type: nucleic-acid assay; details: Bos taurus
DNA [13] = assay: Induction of Escherichia coli supercoiled pUC19 DNA cleavage at 0.0125 mM after 16 hrs in absence of Zn2+ by ethidium bromide staining-based agarose gel electrophoresis method; assay type: nucleic-acid assay
DNA [14] = assay: Induction of Escherichia coli supercoiled pUC19 DNA cleavage at 0.0125 mM after 16 hrs in presence of Zn2+ by ethidium bromide staining-based agarose gel electrophoresis method; assay type: nucleic-acid assay
Albumin [15] = biological target: T1, Albumin (Homo sapiens, UniProt P02768); assay: Binding affinity to HSA assessed as quenching constant at 288 K by UV-vis absorption spectral analysis; assay type: ADME; details: isolated protein
Albumin [16] = biological target: T1, Albumin; assay: Binding affinity to HSA assessed as quenching constant at 298 K by UV-vis absorption spectral analysis; assay type: ADME; details: isolated protein
Albumin [17] = biological target: T1, Albumin; assay: Binding affinity to HSA assessed as quenching constant at 310 K by UV-vis absorption spectral analysis; assay type: ADME; details: isolated protein
Staphylococcus aureus [18] = assay: Antibacterial activity against methicillin-resistant Staphylococcus aureus N315 after 5 passages; assay type: functional, organism-based

T1 sequence (P02768 whole entry): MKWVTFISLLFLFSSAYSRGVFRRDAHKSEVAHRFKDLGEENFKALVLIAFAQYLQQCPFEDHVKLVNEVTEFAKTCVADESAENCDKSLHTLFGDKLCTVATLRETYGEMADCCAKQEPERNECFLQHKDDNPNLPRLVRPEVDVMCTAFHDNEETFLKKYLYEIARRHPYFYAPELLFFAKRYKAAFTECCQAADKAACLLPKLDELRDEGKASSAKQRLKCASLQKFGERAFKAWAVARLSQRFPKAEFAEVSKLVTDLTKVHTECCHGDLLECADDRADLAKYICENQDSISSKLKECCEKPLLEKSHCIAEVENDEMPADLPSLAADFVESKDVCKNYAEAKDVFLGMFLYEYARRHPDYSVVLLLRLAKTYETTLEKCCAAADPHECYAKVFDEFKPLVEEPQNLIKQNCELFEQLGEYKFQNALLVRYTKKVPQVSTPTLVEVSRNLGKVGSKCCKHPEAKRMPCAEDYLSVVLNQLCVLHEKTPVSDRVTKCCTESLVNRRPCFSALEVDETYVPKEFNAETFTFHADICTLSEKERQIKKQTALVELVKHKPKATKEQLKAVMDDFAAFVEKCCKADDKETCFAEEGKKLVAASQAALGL

| SMILES | MIC (Staphylococcus aureus [1]) | MIC (Staphylococcus aureus [2]) | MIC (Bacillus spizizenii) | MIC (Micrococcus luteus) | MIC (Escherichia coli [3]) | MIC (Escherichia coli [4]) | MIC (Shigella dysenteriae) | MIC (Pseudomonas aeruginosa) | MIC (Proteus vulgaris) | MIC (Salmonella typhi) | solubility at 3 h [7] | also measured |
| --- | --- | --- | --- | --- | --- | --- | --- | --- | --- | --- | --- | --- |
| COc1cc(/C=N/n2cnnc2)c2c(c1OCc1ccc(Cl)cc1Cl)CN1CCc3cc4c(cc3C1C2)OCO4 (centres undefined) | 16 µg/mL (≈ 27.7 µM) | 8 µg/mL (≈ 13.8 µM) | 32 µg/mL (≈ 55.3 µM) | 128 µg/mL (≈ 221 µM) | 16 µg/mL (≈ 27.7 µM) | 256 µg/mL (≈ 443 µM) | 512 µg/mL (≈ 885 µM) | 32 µg/mL (≈ 55.3 µM) | 32 µg/mL (≈ 55.3 µM) | 32 µg/mL (≈ 55.3 µM) |  |  |
| CCOc1c(OC)cc(/C=N/n2cnnc2)c2c1CN1CCc3cc4c(cc3C1C2)OCO4 (centres undefined) | 256 µg/mL (≈ 572 µM) | 8 µg/mL (≈ 17.9 µM) | 128 µg/mL (≈ 286 µM) | 16 µg/mL (≈ 35.8 µM) | 256 µg/mL (≈ 572 µM) | 512 µg/mL (≈ 1140 µM) | 512 µg/mL (≈ 1140 µM) | 256 µg/mL (≈ 572 µM) | 32 µg/mL (≈ 71.5 µM) | 256 µg/mL (≈ 572 µM) |  |  |
| COc1cc(/C=N/n2cnnc2)c2c(c1OCc1ccccc1)CN1CCc3cc4c(cc3C1C2)OCO4 (centres undefined) | 8 µg/mL (≈ 15.7 µM) | 2 µg/mL (≈ 3.92 µM) | 32 µg/mL (≈ 62.8 µM) | 1 µg/mL (≈ 1.96 µM) | 32 µg/mL (≈ 62.8 µM) | 16 µg/mL (≈ 31.4 µM) | 32 µg/mL (≈ 62.8 µM) | 8 µg/mL (≈ 15.7 µM) | 16 µg/mL (≈ 31.4 µM) | 4 µg/mL (≈ 7.85 µM) | 178 µg/mL (≈ 349 µM) | Ratio (Staphylococcus aureus [5]): 8; Ratio (Staphylococcus aureus [6]): 4; MIC (Candida albicans): 0.5 to 32 µg/mL (≈ 0.981 to 62.8 µM); MIC (Kregervanrija fluxuum; ATCC 9888, 24 h): 0.5 to 32 µg/mL (≈ 0.981 to 62.8 µM); MIC (Cyberlindnera jadinii): 0.5 to 32 µg/mL (≈ 0.981 to 62.8 µM); MIC (Aspergillus flavus; ATCC 204304, 24 h): 0.5 to 32 µg/mL (≈ 0.981 to 62.8 µM); MIC (Saccharomyces cerevisiae): 0.5 µg/mL (≈ 0.981 µM); FC (Staphylococcus aureus [8]): >3; Activity (Staphylococcus aureus [9]): Active; Activity (Calf thymus DNA [10]): Active; K (Calf thymus DNA [11]): 2.27 ×10⁴ L/mol; inhibition (Calf thymus DNA [12]): Active; Activity (DNA [13]): inactive; Activity (DNA [14]): Active; Kq (Albumin [15]): 2.55 ×10¹³ L/mol/s; Kq (Albumin [16]): 2.05 ×10¹³ L/mol/s; Kq (Albumin [17]): 1.7 ×10¹³ L/mol/s |
| COc1cc(/C=N/n2cnnc2)c2c(c1OCc1ccc(F)cc1)CN1CCc3cc4c(cc3C1C2)OCO4 (centres undefined) | 32 µg/mL (≈ 60.7 µM) | 8 µg/mL (≈ 15.2 µM) | 32 µg/mL (≈ 60.7 µM) | 2 µg/mL (≈ 3.79 µM) | 32 µg/mL (≈ 60.7 µM) | 16 µg/mL (≈ 30.3 µM) | 16 µg/mL (≈ 30.3 µM) | 8 µg/mL (≈ 15.2 µM) | 128 µg/mL (≈ 243 µM) | 4 µg/mL (≈ 7.58 µM) | 185 µg/mL (≈ 351 µM) |  |
| COc1cc(/C=N/n2cnnc2)c2c(c1OCc1cccc(F)c1)CN1CCc3cc4c(cc3C1C2)OCO4 (centres undefined) | 256 µg/mL (≈ 485 µM) | 512 µg/mL (≈ 971 µM) | 512 µg/mL (≈ 971 µM) | 32 µg/mL (≈ 60.7 µM) | > 512 µg/mL | 256 µg/mL (≈ 485 µM) | 256 µg/mL (≈ 485 µM) | 16 µg/mL (≈ 30.3 µM) | 64 µg/mL (≈ 121 µM) | 512 µg/mL (≈ 971 µM) |  | MIC (Candida albicans): 0.5 µg/mL (≈ 0.948 µM) |
| COc1cc(/C=N/n2cnnc2)c2c(c1OCc1cccc(Cl)c1)CN1CCc3cc4c(cc3C1C2)OCO4 (centres undefined) | 256 µg/mL (≈ 471 µM) | 256 µg/mL (≈ 471 µM) | 512 µg/mL (≈ 941 µM) | 512 µg/mL (≈ 941 µM) | 0.5 µg/mL (≈ 0.919 µM) | 512 µg/mL (≈ 941 µM) | 64 µg/mL (≈ 118 µM) | 512 µg/mL (≈ 941 µM) | 512 µg/mL (≈ 941 µM) | 256 µg/mL (≈ 471 µM) |  |  |
| COc1cc(C=O)c2c(c1O)CN1CCc3cc4c(cc3C1C2)OCO4 (centres undefined) | 128 µg/mL (≈ 362 µM) | 256 µg/mL (≈ 724 µM) | 32 µg/mL (≈ 90.6 µM) | 2 µg/mL (≈ 5.66 µM) | 256 µg/mL (≈ 724 µM) | 256 µg/mL (≈ 724 µM) | 512 µg/mL (≈ 1450 µM) | 16 µg/mL (≈ 45.3 µM) | 64 µg/mL (≈ 181 µM) | 2 µg/mL (≈ 5.66 µM) | 79 µg/mL (≈ 224 µM) | Activity (Candida albicans; ATCC 10231): inactive; Activity (Kregervanrija fluxuum; ATCC 9888): inactive; Activity (Cyberlindnera jadinii; ATCC 9950): inactive; Activity (Aspergillus flavus; ATCC 204304): inactive; MIC (Saccharomyces cerevisiae): 1 µg/mL (≈ 2.83 µM) |
| CCn1cc(C(=O)O)c(=O)c2cc(F)c(N3CCNCC3)cc21 [NORFLOXACIN] | 0.5 µg/mL (≈ 1.57 µM) | 8 µg/mL (≈ 25.1 µM) | 4 µg/mL (≈ 12.5 µM) | 4 µg/mL (≈ 12.5 µM) | 1 µg/mL (≈ 3.13 µM) | 1 µg/mL (≈ 3.13 µM) | 4 µg/mL (≈ 12.5 µM) | 16 µg/mL (≈ 50.1 µM) | 8 µg/mL (≈ 25.1 µM) | 4 µg/mL (≈ 12.5 µM) |  | Activity (Staphylococcus aureus [18]): inactive |
| COc1cc(/C=N/n2cnnc2)c2c(c1OCc1ccc(Cl)cc1)CN1CCc3cc4c(cc3C1C2)OCO4 (centres undefined) | 8 µg/mL (≈ 14.7 µM) | 32 µg/mL (≈ 58.8 µM) | 16 µg/mL (≈ 29.4 µM) | 16 µg/mL (≈ 29.4 µM) | 8 µg/mL (≈ 14.7 µM) | 32 µg/mL (≈ 58.8 µM) | 64 µg/mL (≈ 118 µM) | 4 µg/mL (≈ 7.35 µM) | 8 µg/mL (≈ 14.7 µM) | 8 µg/mL (≈ 14.7 µM) | 613 µg/mL (≈ 1130 µM) | MIC (Cyberlindnera jadinii): 0.5 µg/mL (≈ 0.919 µM) |
